Measured values reported in ChEMBL document CHEMBL4396905, “Design, synthesis and in vitro evaluation of 6-amide-2-aryl benzoxazole/benzimidazole derivatives against tumor cells by inhibiting VEGFR-2 kinase” (Eur J Med Chem, 2019).
Values belong to the compound of their own block, whether it stands above or below them. The source made the active and inactive calls. The calls are words filed in the database; no cut-off is given here.

Columns and labels:
[1] = target: Epidermal growth factor receptor (Homo sapiens) (UniProt P00533); experiment: Inhibition of EGFR (unknown origin) using Poly (Glu, Tyr) 4:1 as substrate at 1 uM preincubated with substrate followed by enzyme challenge for 1 hr by ELISA relative to control
[2] = target: T1, Vascular endothelial growth factor receptor 2 (Homo sapiens, UniProt P35968); experiment: Inhibition of VEGFR2 (unknown origin) using Poly (Glu, Tyr) 4:1 as substrate preincubated with substrate followed by enzyme challenge for 1 hr by ELISA
[3] = target: T1, Vascular endothelial growth factor receptor 2; settings: at 1 µM
Description: Inhibition of VEGFR2 (unknown origin) using Poly (Glu, Tyr) 4:1 as substrate at 1 uM preincubated with substrate followed by enzyme challenge for 1 hr by ELISA relative to control

HUVEC [4] = experiment: Antiproliferative activity against human HUVEC cells expressing VEGFR2 assessed as reduction in cell growth incubated for 48 hrs by MTT assay; assay type: functional, cell-based
HepG2 [5] = experiment: Antiproliferative activity against human HepG2 cells expressing VEGFR2 assessed as reduction in cell growth incubated for 48 hrs by MTT assay; assay type: functional, cell-based; settings: HepG2, 48 h
MDA-MB-231 = experiment: Antiproliferative activity against human MDA-MB-231 cells expressing EGFR assessed as reduction in cell growth incubated for 48 hrs by MTT assay; assay type: functional, cell-based; settings: MDA-MB-231, 48 h
A549 = experiment: Antiproliferative activity against human A549 cells expressing EGFR assessed as reduction in cell growth incubated for 48 hrs by MTT assay; assay type: functional, cell-based; settings: A549, 48 h
HepG2 [6] = experiment: Cell cycle arrest in human HepG2 cells assessed as accumulation at G0/G1 phase at 1 nM incuabted for 24 hrs by PI staining based flow cytometry (reference value: 47.9%); assay type: functional
Chorioallantoic membrane [7] = experiment: Antiangiogenic activity in chicken chorioallantoic membrane assessed as reduction in number of blood vessels measured after 48 hrs by CAM assay; assay type: functional, cell membranes; settings: Gallus gallus
HUVEC [8] = experiment: Induction of apoptosis in human HUVEC cells assessed as necrotic cells at 1 nM incubated for 24 hrs by dUTP-FITC/PI staining based flow cytometry (reference value: 6.9%); assay type: functional
HUVEC [9] = experiment: Induction of apoptosis in human HUVEC cells assessed as apoptotic cells at 1 nM incubated for 24 hrs by dUTP-FITC/PI staining based flow cytometry (reference value: 4.9%); assay type: functional
Chorioallantoic membrane [10] = experiment: Antiangiogenic activity in chicken chorioallantoic membrane assessed as reduction in number of blood vessels at 1 nM per egg measured after 48 hrs by CAM assay relative to control; assay type: functional, cell membranes; settings: Gallus gallus
HepG2 [11] = experiment: Induction of apoptosis in human HepG2 cells assessed as apoptotic cells at 1 nM incubated for 24 hrs by dUTP-FITC/PI staining based flow cytometry (reference value: 3.3%); assay type: functional
Chorioallantoic membrane [12] = experiment: Antiangiogenic activity in chicken chorioallantoic membrane assessed as reduction in number of blood vessels at 10 nM per egg measured after 48 hrs by CAM assay relative to control; assay type: functional, cell membranes; settings: Gallus gallus
HUVEC [13] = experiment: Cell cycle arrest in human HUVEC cells assessed as accumulation at G2/M phase at 10 nM incuabted for 24 hrs by PI staining based flow cytometry (reference value: 46.4%); assay type: functional
HepG2 [14] = experiment: Cell cycle arrest in human HepG2 cells assessed as accumulation at S phase at 10 nM incuabted for 24 hrs by PI staining based flow cytometry (reference value: 9.8%); assay type: functional
[15] = target: T1, Vascular endothelial growth factor receptor 2; experiment: Inhibition of VEGFR2 in human HUVEC cells assessed as reduction in phosphorylation of VEGFR2 at 2 to 4 uM incubated for 24 hrs by Western blot analysis; assay type: cell-based
HUVEC [16] = experiment: Cell cycle arrest in human HUVEC cells assessed as accumulation at S phase at 1 nM incuabted for 24 hrs by PI staining based flow cytometry (reference value: 10.4%); assay type: functional
HUVEC [17] = experiment: Cell cycle arrest in human HUVEC cells assessed as accumulation at G0/G1 phase at 1 nM incuabted for 24 hrs by PI staining based flow cytometry (reference value: 43.2%); assay type: functional
[18] = target: Platelet-derived growth factor receptor beta (Homo sapiens) (UniProt P09619); experiment: Inhibition of PDGFRbeta (unknown origin) at 1 uM
HepG2 [19] = experiment: Induction of apoptosis in human HepG2 cells assessed as apoptotic cells at 10 nM incubated for 24 hrs by dUTP-FITC/PI staining based flow cytometry (reference value: 3.3%); assay type: functional
HepG2 [20] = experiment: Cell cycle arrest in human HepG2 cells assessed as accumulation at G2/M phase at 10 nM incuabted for 24 hrs by PI staining based flow cytometry (reference value: 42.3%); assay type: functional
HepG2 [21] = experiment: Cell cycle arrest in human HepG2 cells assessed as accumulation at S phase at 1 nM incuabted for 24 hrs by PI staining based flow cytometry (reference value: 9.8%); assay type: functional
[22] = Cytotoxicity against human LO2 cells assessed as reduction in cell viability at 10 uM relative to control; assay type: cell-based, L02; settings: read-out: INH
HUVEC [23] = experiment: Cell cycle arrest in human HUVEC cells assessed as accumulation at S phase at 10 nM incuabted for 24 hrs by PI staining based flow cytometry (reference value: 10.4%); assay type: functional
HUVEC [24] = experiment: Induction of apoptosis in human HUVEC cells assessed as apoptotic cells at 10 nM incubated for 24 hrs by dUTP-FITC/PI staining based flow cytometry (reference value: 4.9%); assay type: functional
HUVEC [25] = experiment: Cell cycle arrest in human HUVEC cells assessed as accumulation at G0/G1 phase incuabted for 24 hrs by PI staining based flow cytometry; assay type: functional
[26] = target: Platelet-derived growth factor receptor alpha (Homo sapiens) (UniProt P16234); experiment: Inhibition of PDGFRalpha (unknown origin) at 1 uM
HepG2 [27] = experiment: Cell cycle arrest in human HepG2 cells assessed as accumulation at G0/G1 phase at 10 nM incuabted for 24 hrs by PI staining based flow cytometry (reference value: 47.9%); assay type: functional
HepG2 [28] = experiment: Cell cycle arrest in human HepG2 cells assessed as accumulation at G2/M phase at 1 nM incuabted for 24 hrs by PI staining based flow cytometry (reference value: 42.3%); assay type: functional
[29] = target: Vascular endothelial growth factor receptor 1 (Homo sapiens) (UniProt P17948); experiment: Inhibition of FLT1 (unknown origin) at 1 uM
[30] = target: Vascular endothelial growth factor receptor 3 (Homo sapiens) (UniProt P35916); experiment: Inhibition of FLT4 (unknown origin) 1 uM
Chorioallantoic membrane [31] = experiment: Antiangiogenic activity in chicken chorioallantoic membrane assessed as reduction in number of blood vessels at 0.1 nM per egg measured after 48 hrs by CAM assay relative to control; assay type: functional, cell membranes; settings: Gallus gallus
HUVEC [32] = experiment: Induction of apoptosis in human HUVEC cells assessed as necrotic cells at 10 nM incubated for 24 hrs by dUTP-FITC/PI staining based flow cytometry (reference value: 6.9%); assay type: functional
HepG2 [33] = experiment: Induction of apoptosis in human HepG2 cells assessed as necrotic cells at 1 nM incubated for 24 hrs by dUTP-FITC/PI staining based flow cytometry (reference value: 10.2%); assay type: functional
HepG2 [34] = experiment: Induction of apoptosis in human HepG2 cells assessed as necrotic cells at 10 nM incubated for 24 hrs by dUTP-FITC/PI staining based flow cytometry (reference value: 10.2%); assay type: functional
HUVEC [35] = experiment: Cell cycle arrest in human HUVEC cells assessed as accumulation at G2/M phase at 1 nM incuabted for 24 hrs by PI staining based flow cytometry (reference value: 46.4%); assay type: functional
HUVEC [36] = experiment: Cell cycle arrest in human HUVEC cells assessed as accumulation at G0/G1 phase at 10 nM incuabted for 24 hrs by PI staining based flow cytometry (reference value: 43.2%); assay type: functional
[37] = target: Hepatocyte growth factor receptor (Homo sapiens) (UniProt P08581); experiment: Inhibition of MET (unknown origin) at 1 uM
HepG2 [38] = experiment: Cell cycle arrest in human HepG2 cells assessed as accumulation at G0/G1 phase incuabted for 24 hrs by PI staining based flow cytometry; assay type: functional

T1 sequence (P35968 whole entry): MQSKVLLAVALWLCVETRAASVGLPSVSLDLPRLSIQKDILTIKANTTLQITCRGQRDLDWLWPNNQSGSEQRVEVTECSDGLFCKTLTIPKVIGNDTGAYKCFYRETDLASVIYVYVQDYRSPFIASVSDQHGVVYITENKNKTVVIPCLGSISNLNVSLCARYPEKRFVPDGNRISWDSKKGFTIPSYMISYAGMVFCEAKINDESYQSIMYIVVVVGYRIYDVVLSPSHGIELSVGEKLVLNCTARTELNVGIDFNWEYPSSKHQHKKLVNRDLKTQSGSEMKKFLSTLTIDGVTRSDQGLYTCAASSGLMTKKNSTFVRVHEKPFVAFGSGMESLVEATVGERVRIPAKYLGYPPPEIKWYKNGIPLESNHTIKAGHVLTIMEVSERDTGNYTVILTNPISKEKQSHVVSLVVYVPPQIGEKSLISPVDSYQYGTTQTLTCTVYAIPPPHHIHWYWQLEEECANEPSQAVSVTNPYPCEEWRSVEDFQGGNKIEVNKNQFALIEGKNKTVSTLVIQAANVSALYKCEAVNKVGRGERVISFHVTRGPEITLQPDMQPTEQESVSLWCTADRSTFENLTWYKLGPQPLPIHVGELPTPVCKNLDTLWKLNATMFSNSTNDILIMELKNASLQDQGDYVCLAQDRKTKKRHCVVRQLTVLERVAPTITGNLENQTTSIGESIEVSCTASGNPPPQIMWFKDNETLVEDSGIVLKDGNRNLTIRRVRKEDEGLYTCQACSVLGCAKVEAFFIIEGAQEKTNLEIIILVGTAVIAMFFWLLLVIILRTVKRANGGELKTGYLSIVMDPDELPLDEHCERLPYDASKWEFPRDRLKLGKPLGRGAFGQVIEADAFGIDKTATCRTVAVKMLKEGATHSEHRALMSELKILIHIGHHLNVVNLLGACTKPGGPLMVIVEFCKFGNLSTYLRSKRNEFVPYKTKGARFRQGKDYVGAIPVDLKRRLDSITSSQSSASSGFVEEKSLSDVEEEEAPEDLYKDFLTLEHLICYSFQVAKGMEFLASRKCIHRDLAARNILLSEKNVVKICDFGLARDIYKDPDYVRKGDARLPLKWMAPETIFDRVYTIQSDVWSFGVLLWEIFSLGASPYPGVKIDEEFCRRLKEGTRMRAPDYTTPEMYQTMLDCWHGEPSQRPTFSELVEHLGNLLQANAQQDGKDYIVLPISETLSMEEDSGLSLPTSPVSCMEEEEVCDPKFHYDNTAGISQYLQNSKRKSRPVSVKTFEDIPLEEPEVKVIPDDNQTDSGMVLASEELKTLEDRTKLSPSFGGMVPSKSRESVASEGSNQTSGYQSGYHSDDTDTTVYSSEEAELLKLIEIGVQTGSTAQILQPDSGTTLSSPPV
Chain of Epidermal growth factor receptor (Homo sapiens) (P00533 whole entry): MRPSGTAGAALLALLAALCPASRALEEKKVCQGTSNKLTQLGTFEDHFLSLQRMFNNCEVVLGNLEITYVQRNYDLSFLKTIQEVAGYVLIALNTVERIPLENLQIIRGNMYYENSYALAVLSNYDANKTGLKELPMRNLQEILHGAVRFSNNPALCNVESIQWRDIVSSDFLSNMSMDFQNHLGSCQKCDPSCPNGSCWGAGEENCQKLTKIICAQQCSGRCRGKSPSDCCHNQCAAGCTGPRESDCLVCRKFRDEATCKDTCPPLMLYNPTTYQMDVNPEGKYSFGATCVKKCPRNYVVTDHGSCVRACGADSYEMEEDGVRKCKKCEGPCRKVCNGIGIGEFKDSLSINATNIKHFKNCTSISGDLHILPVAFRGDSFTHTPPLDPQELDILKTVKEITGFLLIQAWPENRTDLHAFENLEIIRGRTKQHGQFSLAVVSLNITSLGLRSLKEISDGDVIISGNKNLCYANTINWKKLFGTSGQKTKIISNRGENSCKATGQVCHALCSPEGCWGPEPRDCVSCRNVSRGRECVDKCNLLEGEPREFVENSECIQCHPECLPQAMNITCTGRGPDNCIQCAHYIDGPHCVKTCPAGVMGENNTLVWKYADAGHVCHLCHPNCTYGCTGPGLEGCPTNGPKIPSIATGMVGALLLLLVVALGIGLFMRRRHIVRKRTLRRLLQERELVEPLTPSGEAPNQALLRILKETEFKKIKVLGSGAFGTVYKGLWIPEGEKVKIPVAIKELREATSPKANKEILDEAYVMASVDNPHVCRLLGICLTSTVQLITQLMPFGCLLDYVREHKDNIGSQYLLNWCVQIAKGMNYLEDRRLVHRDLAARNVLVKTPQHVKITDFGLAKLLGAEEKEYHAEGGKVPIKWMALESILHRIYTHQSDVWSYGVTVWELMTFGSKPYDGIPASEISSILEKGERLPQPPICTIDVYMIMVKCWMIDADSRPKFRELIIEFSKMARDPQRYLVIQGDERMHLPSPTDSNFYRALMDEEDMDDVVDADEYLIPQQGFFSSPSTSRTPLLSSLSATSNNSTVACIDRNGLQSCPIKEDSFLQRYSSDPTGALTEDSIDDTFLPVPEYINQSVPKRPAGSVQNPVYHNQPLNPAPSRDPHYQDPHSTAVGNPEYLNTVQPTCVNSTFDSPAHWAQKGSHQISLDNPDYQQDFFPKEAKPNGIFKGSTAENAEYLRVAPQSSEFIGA
Chain of Hepatocyte growth factor receptor (Homo sapiens) (P08581 whole entry): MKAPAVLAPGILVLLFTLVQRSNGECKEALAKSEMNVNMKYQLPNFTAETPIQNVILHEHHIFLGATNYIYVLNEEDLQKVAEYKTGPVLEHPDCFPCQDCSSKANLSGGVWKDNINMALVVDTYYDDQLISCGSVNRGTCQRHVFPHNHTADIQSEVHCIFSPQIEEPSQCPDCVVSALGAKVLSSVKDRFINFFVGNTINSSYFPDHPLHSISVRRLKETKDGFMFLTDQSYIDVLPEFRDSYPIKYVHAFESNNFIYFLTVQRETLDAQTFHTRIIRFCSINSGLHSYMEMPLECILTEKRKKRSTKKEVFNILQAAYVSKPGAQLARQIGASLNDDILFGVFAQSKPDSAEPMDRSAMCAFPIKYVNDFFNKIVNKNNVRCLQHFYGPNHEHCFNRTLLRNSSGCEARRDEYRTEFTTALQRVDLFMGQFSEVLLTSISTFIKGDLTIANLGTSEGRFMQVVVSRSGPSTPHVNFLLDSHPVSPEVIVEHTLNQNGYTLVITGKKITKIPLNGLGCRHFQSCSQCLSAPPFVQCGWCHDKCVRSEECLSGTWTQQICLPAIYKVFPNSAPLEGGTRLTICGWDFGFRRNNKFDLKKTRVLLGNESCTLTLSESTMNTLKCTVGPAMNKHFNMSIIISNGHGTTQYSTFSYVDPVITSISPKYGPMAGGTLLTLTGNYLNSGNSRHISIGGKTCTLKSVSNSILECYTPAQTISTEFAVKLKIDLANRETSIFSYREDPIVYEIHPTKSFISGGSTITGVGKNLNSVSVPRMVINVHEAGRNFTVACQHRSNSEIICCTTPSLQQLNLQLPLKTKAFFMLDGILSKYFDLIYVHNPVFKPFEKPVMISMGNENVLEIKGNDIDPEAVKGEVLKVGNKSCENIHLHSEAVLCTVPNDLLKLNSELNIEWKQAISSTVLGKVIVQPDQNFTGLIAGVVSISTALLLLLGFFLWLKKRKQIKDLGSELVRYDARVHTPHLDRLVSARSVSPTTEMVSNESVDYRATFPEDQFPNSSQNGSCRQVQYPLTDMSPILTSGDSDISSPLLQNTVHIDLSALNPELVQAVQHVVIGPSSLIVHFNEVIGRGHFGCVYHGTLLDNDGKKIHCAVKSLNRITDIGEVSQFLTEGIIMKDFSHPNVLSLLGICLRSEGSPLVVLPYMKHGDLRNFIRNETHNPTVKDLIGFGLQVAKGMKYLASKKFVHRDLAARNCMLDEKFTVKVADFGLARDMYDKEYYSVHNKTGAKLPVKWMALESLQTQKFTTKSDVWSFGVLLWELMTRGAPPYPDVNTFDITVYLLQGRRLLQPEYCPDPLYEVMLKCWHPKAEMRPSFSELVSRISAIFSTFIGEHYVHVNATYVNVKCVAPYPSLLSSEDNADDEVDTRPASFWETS
Chain of Platelet-derived growth factor receptor beta (Homo sapiens) (P09619 whole entry): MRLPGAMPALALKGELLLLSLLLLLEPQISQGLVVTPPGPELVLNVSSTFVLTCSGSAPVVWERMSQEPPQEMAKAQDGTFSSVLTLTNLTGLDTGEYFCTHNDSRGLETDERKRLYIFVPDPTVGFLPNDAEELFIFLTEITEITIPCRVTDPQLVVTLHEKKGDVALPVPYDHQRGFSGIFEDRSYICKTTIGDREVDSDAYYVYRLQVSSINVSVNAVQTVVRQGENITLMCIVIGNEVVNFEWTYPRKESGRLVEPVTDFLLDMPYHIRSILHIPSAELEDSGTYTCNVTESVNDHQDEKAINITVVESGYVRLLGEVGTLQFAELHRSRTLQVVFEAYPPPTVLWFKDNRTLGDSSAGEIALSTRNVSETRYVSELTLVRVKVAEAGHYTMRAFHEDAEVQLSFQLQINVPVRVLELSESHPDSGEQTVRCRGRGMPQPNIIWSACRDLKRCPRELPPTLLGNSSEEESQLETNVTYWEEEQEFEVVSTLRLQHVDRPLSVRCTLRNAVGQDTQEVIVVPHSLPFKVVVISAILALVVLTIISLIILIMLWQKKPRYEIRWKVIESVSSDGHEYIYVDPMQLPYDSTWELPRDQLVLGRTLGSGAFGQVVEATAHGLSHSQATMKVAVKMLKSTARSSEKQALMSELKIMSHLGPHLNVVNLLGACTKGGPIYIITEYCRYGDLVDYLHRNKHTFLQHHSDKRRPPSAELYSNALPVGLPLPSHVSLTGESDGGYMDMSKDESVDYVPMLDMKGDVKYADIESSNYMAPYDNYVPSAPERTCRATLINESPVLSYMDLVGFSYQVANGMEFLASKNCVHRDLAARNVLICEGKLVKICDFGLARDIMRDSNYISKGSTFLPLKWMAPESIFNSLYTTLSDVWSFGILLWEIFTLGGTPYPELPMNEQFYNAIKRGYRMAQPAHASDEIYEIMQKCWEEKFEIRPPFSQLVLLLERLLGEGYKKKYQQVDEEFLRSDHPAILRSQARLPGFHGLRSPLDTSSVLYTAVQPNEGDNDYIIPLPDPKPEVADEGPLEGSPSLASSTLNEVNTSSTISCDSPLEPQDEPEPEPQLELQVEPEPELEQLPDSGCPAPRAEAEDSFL

inhibition [1]: 43.8% | IC50 [2]: 0.444 µM | inhibition [3]: 90.1% | IC50 (HepG2 [5]): 30.8 µM | IC50 (MDA-MB-231): 76.2 µM | IC50 (A549): > 100 µM
SMILES: COc1ccc(CC(=O)Nc2ccc3oc(-c4ccccc4Cl)nc3c2)cc1
IC50 (HUVEC [4]): 15.4 µM

inhibition [1]: 44.1% | IC50 [2]: 0.338 µM | inhibition [3]: 90.2% | IC50 (HepG2 [5]): 37 µM | IC50 (MDA-MB-231): > 100 µM | IC50 (A549): > 100 µM
SMILES: O=C(Nc1ccc2oc(-c3ccc(Cl)cc3)nc2c1)c1ccc(Cl)c(Br)c1
IC50 (HUVEC [4]): 13.4 µM

inhibition [1]: 43.1% | IC50 [2]: 0.419 µM | inhibition [3]: 90.2% | IC50 (HepG2 [5]): 3.43 µM | IC50 (MDA-MB-231): 75.9 µM | IC50 (A549): 36.8 µM
SMILES: COc1cc(CC(=O)Nc2ccc3[nH]c(-c4ccc(Cl)cc4)nc3c2)cc(OC)c1OC
IC50 (HUVEC [4]): 7.32 µM

inhibition [1]: 58.3% | IC50 [2]: 0.0514 µM | inhibition [15]: Active | inhibition [3]: 103% | inhibition [18]: 2.7% | IC50 (HepG2 [5]): 2.57 µM | IC50 (MDA-MB-231): 57.3 µM | IC50 (A549): 73.8 µM | inhibition [26]: -3.5% | inhibition [29]: 26.1% | inhibition [30]: 18.5% | inhibition [37]: -3.6%
SMILES: COc1ccc(CC(=O)Nc2ccc3[nH]c(-c4ccc(Cl)cc4)nc3c2)cc1
Activity (HepG2 [6]): 55.7% | inhibition (Chorioallantoic membrane [7]): Dose-dependent effect | Activity (HUVEC [8]): 6.9% | Activity (HUVEC [9]): 18.9% | inhibition (Chorioallantoic membrane [10]): 51% | Activity (HepG2 [11]): 13.7% | inhibition (Chorioallantoic membrane [12]): 79% | Activity (HUVEC [13]): 21.3% | Activity (HepG2 [14]): 6.7% | Activity (HUVEC [16]): 8.9% | Activity (HUVEC [17]): 59.3% | IC50 (HUVEC [4]): 1.47 µM | Activity (HepG2 [19]): 28.1% | Activity (HepG2 [20]): 25.3% | Activity (HepG2 [21]): 8.1% | cytotoxicity at 10 µM [22]: 56.4% | Activity (HUVEC [23]): 7.3% | Activity (HUVEC [24]): 34.3% | Activity (HUVEC [25]): Dose-dependent effect | Activity (HepG2 [27]): 68% | Activity (HepG2 [28]): 36.2% | inhibition (Chorioallantoic membrane [31]): 28% | Activity (HUVEC [32]): 2.5% | Activity (HepG2 [33]): 7.3% | Activity (HepG2 [34]): 5.9% | Activity (HUVEC [35]): 31.8% | Activity (HUVEC [36]): 71.4% | Activity (HepG2 [38]): Dose-dependent effect

inhibition [1]: 39.1% | IC50 [2]: 0.842 µM | inhibition [3]: 89.1% | IC50 (HepG2 [5]): 33.1 µM | IC50 (MDA-MB-231): 74.3 µM | IC50 (A549): 40.2 µM
SMILES: Cc1ccc(CC(=O)Nc2ccc3oc(-c4ccccc4Br)nc3c2)cc1
IC50 (HUVEC [4]): 23.6 µM

inhibition [1]: 49.4% | IC50 [2]: 0.0973 µM | inhibition [3]: 102% | IC50 (HepG2 [5]): 8.22 µM | IC50 (MDA-MB-231): 74.3 µM | IC50 (A549): 74.4 µM
SMILES: COc1ccc(CC(=O)Nc2ccc3oc(-c4ccc(Cl)cc4)nc3c2)cc1
IC50 (HUVEC [4]): 5.25 µM
